How the values were obtained:
Assay type in all cases: cell-based
[1] = tested on: SKBR3 breast cancer cells (Mut-p53, position 175); experiment: Crystal violet viability assay; conditions: shCon cells
From the text: (§1) FIGS. 15A and 15B are bar graphs illustrating the effect of the various indicated peptides on the viability of breast cancer cells expressing different Mut-p53 isoforms, as determined by crystal violet assay. FIG. 15A: MDA-MB-231 cells expressing Mut-p53 with a mutation at position 280 of the DBD. FIG. 15B: SKBR3 cells expressing Mut-p53 with mutation at position 175 within the DBD. The bar graphs in FIGS. 15A and 15B show for each tested peptide the optical density reads at 595 nm, reflecting the number of cells in the plate after treatment, normalized to the non-treated (NT) samples.
(§2) Cells were cultured in 96 wells plates with 2500-4000 cells/well in 0.1 ml and incubated overnight at 37° C. in order to adhere to the plate. Serial dilutions of different peptides (0.5 μg/ml) were added in 0.1 ml aliquots and the plates incubated for additional 48 h at 37° C. Then medium was removed and cell lysis was determined by staining the cells with crystal violet (0.5%) in methanol/water (1:4, v/v), 50 μl each well, for 10 min, followed by 3 washes with PBS. Afterwards, 10% acetic acid (50 μl) was added to each well and shaken for 10 min. Then, automatic plate reading was performed at 595 nm.
(§3) Experiments using different cancer cell lines expressing endogenously different p53 mutant isoforms were performed. FIGS. 15A and 15B illustrate two representative experiments performed on MDA-MB-231 (FIG. 15A) and SKBR3 (FIG. 15B) breast cancer cells expressing Mut-p53 with mutations at positions 280 or 175, respectively, within the DNA Binding Domain (DBD). To examine the peptides' specificity for Mut-p53, the control used was such cells with a knockdown of Mut-p53 (shp53).

[2] = tested on: MDA-MB-231 breast cancer cells (Mut-p53, position 280); experiment: Crystal violet viability assay; conditions: shCon cells
From the text: as §1, §2, §3

[3] = tested on: ES2 ovarian carcinoma cells (Mut-p53, position 241); experiment: Annexin-V/PI apoptosis assay by flow cytometry; conditions: 12 ug/ml
Protocol: (§4) FIGS. 17A, 17B, 17C and 17D illustrate representative experiments performed on ES2 ovarian carcinoma cells expressing Mut-p53 mutated at position 241 within the DBD. […] Cells were harvested and an apoptosis assay (FIGS. 17A and 17B) was performed using the Annexin-V staining kit (Roche, REF 11 988 549 001). Non-fixed cells were stained with both anti Annexin FITC conjugated antibody to detect apoptotic cells, and PI (propidium iodide) to stain dead cells, according to the manufacturer's instructions. Stained cells were then analyzed by flow cytometry. A total of 10,000 cells was counted for each sample and divided into four sub populations according to staining intensity; cells negative for both PI and Annexin (−PI, −Annexin) are termed live; cells negative for PI and positive for Annexin (−PI, +Annexin) are going through early stages of apoptosis; cells positive for PI and Annexin (+PI, +Annexin) are dead cells that underwent an apoptotic process; and cells positive for PI and negative for Annexin (+PI, −Annexin) are assumed as dead cells that died by a non-apoptotic process such as necrosis.
FIGS. 17A and 17B illustrate a representative experiments performed on ES2 ovarian carcinoma cells (FIGS. 17A-D) expressing Mut-p53 with a mutation at positions 241 within the DBD. […] Cells were harvested, and 60% of the cells were taken for Annexin-PI apoptosis assay and 40% for extraction of RNA, cDNA synthesis and real time PCR analysis. Apoptosis was assayed using the Annexin-V staining kit (Roche, REF 11 988 549 001). Non-fixed cells were stained with both anti Annexin FITC conjugated antibody to detect apoptotic cells, and PI (propidium-iodide) to stain dead cells permeable to the compound, according to the manufacturer's instructions. Stained cells were then analyzed by flow cytometry. A total of 10,000 cells was counted for each sample and divided into four subpopulations according to staining intensity: cells negative for both PI and Annexin (−PI, −Annexin) are termed live; cells negative for PI and positive for Annexin (−PI, +Annexin) are going through early stages of apoptosis; cells positive for PI and Annexin (+PI, +Annexin) are dead cells that underwent an apoptotic process; and cells positive for PI and negative for Annexin (+PI, −Annexin) are assumed to be dead cells that died a non-apoptotic death such as necrosis. […] Treatment with pCAPs 242 and 250 causes a rapid increase in apoptotic cells followed by cell death and after 5 hours of treatment 12% of cells are Annexin positive and about 7% are dead. After 16 and 24 hours of treatment with pCAP 250 the apoptotic population increases to about 27% and dead cells accumulate to 29% at 16h and 36% after 24h. […] CD95 and Btg-2 expression is elevated up to 6 fold over non-treated cells.

[4] = tested on: ES2 ovarian carcinoma cells (Mut-p53, position 241); experiment: qRT-PCR of p53 target genes (p21, PUMA, CD95, Btg-2); conditions: 12 ug/ml, over non-treated cells
Protocol: as §4
FIGS. 17A and 17B illustrate a representative experiments performed on ES2 ovarian carcinoma cells (FIGS. 17A-D) expressing Mut-p53 with a mutation at positions 241 within the DBD. […] Stained cells were then analyzed by flow cytometry. […]

Substance: HANLHHTRRRRRRRRRRR [pCAP-146]
- Mut-p53 specific effect on cell viability, SKBR3 shCon cells [1]: almost no specific effect
- Mut-p53 specific effect on cell viability, MDA-MB-231 shCon cells [2]: significant decrease

Substance: myr-RRHSTPHPD [pCAP-250]
- apoptotic population ([3]; after 16 and 24 hours of treatment): about 27%
- Annexin positive cells ([3]; after 5 hours of treatment): 12%
- dead cells ([3]; after 5 hours of treatment): about 7%
- dead cells ([3]; after 24h): 36%
- dead cells ([3]; at 16h): 29%
- p21 and PUMA mRNA expression increase over time [4]: up to 10 fold

From patent US11028127B2, “Peptides capable of reactivating p53 mutants” (Yeda Research and Development Co. Ltd., priority 2013, dated 2021)
